Laboratory results published in ChEMBL document CHEMBL6177932 (J Med Chem, 2024).
Activity calls are given as the source filed them. The calls are words filed in the database; no cut-off is given here.

How the values were obtained:
MDA-MB-231 [1] = assay: Cytotoxicity against human MDA-MB-231 cells assessed as reduction in cell viability at 100 nM measured after 24 hrs in presence of 1,25D by RealTime-glo cell viability assay; type: functional, cell-based
4T1 [2] = assay: Cytotoxicity against mouse 4T1 cells assessed as reduction in cell viability at 100 nM measured after 24 hrs in presence of 1,25D by RealTime-glo cell viability assay; type: functional, cell-based
B16-F10 [3] = assay: Antitumor activity against mouse B16-F10 cells implanted in C57BL/6 mouse assessed as reduction in tumor burden at 80 mg/kg, ip administered every second day for 18 days; type: functional, organism-based; details: time 18.0 day
MDA-MB-231 [4] = assay: Cytotoxicity against human MDA-MB-231 cells assessed as reduction in cell viability at 100 nM measured after 24 hrs by RealTime-glo cell viability assay; type: functional, cell-based
[5] = Toxicity in 4T1 cells implanted BALB/c mouse assessed as body weight loss at 80 mg/kg, ip administered daily for 18 days in presence of 1,25D; type: organism-based; details: in vivo, 432 h, time 18 day
[6] = Toxicity in 4T1 cells implanted BALB/c mouse assessed as stress at 80 mg/kg, ip administered daily for 18 days in presence of 1,25D; type: organism-based; details: in vivo, 432 h, time 18 day
[7] = molecular target: T1, Vitamin D3 receptor (Mus musculus) (UniProt P48281); assay: Agonist activity at VDR in mouse B16-F10 cells assessed as induction of Cyp24a1 gene at 100 nM measured after 24 hrs in presence of 1,25D by RT-qPCR analysis; type: cell-based; details: filed as agonist
T1 sequence (whole entry): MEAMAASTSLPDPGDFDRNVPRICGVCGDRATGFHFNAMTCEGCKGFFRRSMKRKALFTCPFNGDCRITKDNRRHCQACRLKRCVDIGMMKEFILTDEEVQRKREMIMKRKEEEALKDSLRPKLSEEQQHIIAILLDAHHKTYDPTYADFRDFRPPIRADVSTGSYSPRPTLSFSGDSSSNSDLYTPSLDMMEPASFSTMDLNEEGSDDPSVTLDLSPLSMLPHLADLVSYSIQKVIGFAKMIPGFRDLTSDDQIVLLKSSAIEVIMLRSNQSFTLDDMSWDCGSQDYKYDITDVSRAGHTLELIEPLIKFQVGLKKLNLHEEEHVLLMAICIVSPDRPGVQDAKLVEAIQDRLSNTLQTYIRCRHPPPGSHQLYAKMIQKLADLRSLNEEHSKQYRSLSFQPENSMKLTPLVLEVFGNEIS

Mus musculus [8] = assay: Immunomodulatory activity in mouse 4T1 cells implanted BALB/c mouse assessed as reduction in total macrophage infiltration into tumors at 80 mg/kg, ip administered daily for 18 days by F4/80 staining based immunofluorescence microscopy; type: functional, organism-based; details: time 18.0 day
[9] = Toxicity in 4T1 cells implanted BALB/c mouse assessed as stress at 80 mg/kg, ip administered daily for 18 days; type: organism-based; details: in vivo, 432 h, time 18 day
[10] = Toxicity in mouse B16-F10 cells implanted C57BL/6 mouse assessed as effect on body weight at 80 mg/kg, ip administered daily for 28 days; type: organism-based; details: in vivo, time 28 day
[11] = Toxicity in mouse B16-F10 cells implanted C57BL/6 mouse at 80 mg/kg, ip administered daily for 28 days in presence of 1,25D; type: organism-based; details: in vivo, time 28 day
[12] = Toxicity in mouse B16-F10 cells implanted C57BL/6 mouse at 80 mg/kg, ip administered daily for 28 days; type: organism-based; details: in vivo, time 28 day
4T1 [13] = assay: Antitumor activity against mouse 4T1 cells implanted in BALB/c mouse assessed as reduction in tumor burden at 80 mg/kg, ip administered daily for 18 days in presence of 1,25D relative to control; type: functional; set-up: scale not given: the % may be the effect or the level left; details: time 18 day
[14] = molecular target: T2, Protein deacetylase HDAC6 (Mus musculus) (UniProt Q9Z2V5); assay: Inhibition of HDAC6 in mouse B16-F10 cells assessed as induction of tubulin acetylation at 100 nM measured after 6 hrs by Western blot analysis; type: cell-based
T2 sequence (whole entry): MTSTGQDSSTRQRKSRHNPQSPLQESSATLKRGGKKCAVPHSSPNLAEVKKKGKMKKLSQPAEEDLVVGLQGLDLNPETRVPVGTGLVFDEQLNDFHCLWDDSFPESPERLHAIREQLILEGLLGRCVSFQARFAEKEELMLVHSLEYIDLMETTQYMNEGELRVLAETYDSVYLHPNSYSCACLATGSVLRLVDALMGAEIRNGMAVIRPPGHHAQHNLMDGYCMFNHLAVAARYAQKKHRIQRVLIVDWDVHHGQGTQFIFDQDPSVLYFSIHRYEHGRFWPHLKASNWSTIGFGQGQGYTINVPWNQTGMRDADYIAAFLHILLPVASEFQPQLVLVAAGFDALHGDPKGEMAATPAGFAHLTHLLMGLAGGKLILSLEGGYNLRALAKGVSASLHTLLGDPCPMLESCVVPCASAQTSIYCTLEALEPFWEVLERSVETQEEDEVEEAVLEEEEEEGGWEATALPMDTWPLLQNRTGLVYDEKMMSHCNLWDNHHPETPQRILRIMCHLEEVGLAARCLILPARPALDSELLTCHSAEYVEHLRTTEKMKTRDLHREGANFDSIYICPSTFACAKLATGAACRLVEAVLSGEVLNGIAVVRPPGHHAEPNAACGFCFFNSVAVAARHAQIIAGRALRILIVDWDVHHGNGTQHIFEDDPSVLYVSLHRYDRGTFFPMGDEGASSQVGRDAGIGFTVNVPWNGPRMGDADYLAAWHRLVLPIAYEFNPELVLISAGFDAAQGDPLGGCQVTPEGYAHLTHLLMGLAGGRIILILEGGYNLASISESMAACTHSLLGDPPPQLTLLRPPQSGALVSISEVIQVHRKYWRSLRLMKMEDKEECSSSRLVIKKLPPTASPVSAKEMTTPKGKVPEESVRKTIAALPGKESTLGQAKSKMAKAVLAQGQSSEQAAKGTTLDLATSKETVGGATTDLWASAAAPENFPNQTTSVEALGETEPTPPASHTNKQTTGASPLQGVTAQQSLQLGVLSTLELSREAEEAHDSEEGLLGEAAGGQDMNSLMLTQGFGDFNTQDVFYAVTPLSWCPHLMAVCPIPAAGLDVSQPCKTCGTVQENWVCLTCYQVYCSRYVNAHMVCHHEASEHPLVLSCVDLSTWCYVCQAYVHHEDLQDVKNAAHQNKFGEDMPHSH

[15] = molecular target: T2, Protein deacetylase HDAC6 (Mus musculus); assay: Inhibition of HDAC6 in mouse 4T1 cells assessed as induction of tubulin acetylation at 100 nM measured after 6 hrs by Western blot analysis; type: cell-based
4T1 [16] = assay: Cytotoxicity against mouse 4T1 cells assessed as reduction in cell viability at 100 nM measured after 24 hrs by RealTime-glo cell viability assay; type: functional, cell-based
[17] = Toxicity in mouse B16-F10 cells implanted C57BL/6 mouse assessed as effect on body weight at 80 mg/kg, ip administered daily for 28 days in presence of 1,25D; type: organism-based; details: in vivo, time 28 day
B16-F10 [18] = assay: Antitumor activity against mouse B16-F10 cells implanted in C57BL/6 mouse assessed as reduction in tumor burden at 80 mg/kg, ip administered every second day for 18 days in presence of 1,25D; type: functional, organism-based; details: time 18.0 day
[19] = Toxicity in 4T1 cells implanted BALB/c mouse assessed as body weight loss at 80 mg/kg, ip administered daily for 18 days; type: organism-based; details: in vivo, 432 h, time 18 day
[20] = Toxicity in mouse B16-F10 cells implanted C57BL/6 mouse at 0.25 ug/kg, ip administered daily for 28 days in presence of SAHA; type: organism-based; details: in vivo, 0.00025 mg/kg, dose 0.25 µg/kg, time 28 day
MDA-MB-231 [21] = assay: Cytotoxicity against human MDA-MB-231 cells assessed as reduction in cell viability at 100 nM measured after 24 hrs in presence of SAHA by RealTime-glo cell viability assay; type: functional, cell-based
[22] = Toxicity in 4T1 cells implanted BALB/c mouse assessed as body weight loss at 0.25 ug/kg, ip administered daily for 18 days; type: organism-based; details: in vivo, 0.00025 mg/kg, 432 h, dose 0.25 µg/kg, time 18 day
[23] = Toxicity in mouse B16-F10 cells implanted C57BL/6 mouse assessed as effect on body weight at 0.25 ug/kg, ip administered daily for 28 days; type: organism-based; details: in vivo, 0.00025 mg/kg, dose 0.25 µg/kg, time 28 day
Mus musculus [24] = assay: Immunomodulatory activity in mouse 4T1 cells implanted BALB/c mouse assessed as reduction in Ccl5 gene expression at 0.25 ug/kg, ip administered daily for 18 days by RT-qPCR analysis; type: functional, organism-based; details: dose 0.25 µg/kg, time 18.0 day
[25] = Toxicity in 4T1 cells implanted BALB/c mouse assessed as body weight loss at 0.25 ug/kg, ip administered daily for 18 days in presence of SAHA; type: organism-based; details: in vivo, 0.00025 mg/kg, 432 h, dose 0.25 µg/kg, time 18 day
[26] = Toxicity in 4T1 cells implanted BALB/c mouse assessed as stress at 0.25 ug/kg, ip administered daily for 18 days in presence of SAHA; type: organism-based; details: in vivo, 0.00025 mg/kg, 432 h, dose 0.25 µg/kg, time 18 day
Mus musculus [27] = assay: Immunomodulatory activity in mouse 4T1 cells implanted BALB/c mouse assessed as reduction in Ccl20 gene expression at 0.25 ug/kg, ip administered daily for 18 days by RT-qPCR analysis; type: functional, organism-based; details: dose 0.25 µg/kg, time 18.0 day
B16-F10 [28] = assay: Antitumor activity against mouse B16-F10 cells implanted in C57BL/6 mouse assessed as reduction in tumor burden at 0.25 ug/kg, ip administered every second day for 18 days; type: functional, organism-based; details: dose 0.25 µg/kg, time 18.0 day
[29] = Toxicity in mouse B16-F10 cells implanted C57BL/6 mouse at 0.25 ug/kg, ip administered daily for 28 days; type: organism-based; details: in vivo, 0.00025 mg/kg, dose 0.25 µg/kg, time 28 day
B16-F10 [30] = assay: Antitumor activity against mouse B16-F10 cells implanted in C57BL/6 mouse assessed as reduction in tumor burden at 0.25 ug/kg, ip administered every second day for 18 days in presence of SAHA; type: functional, organism-based; details: dose 0.25 µg/kg, time 18.0 day
Mus musculus [31] = assay: Immunomodulatory activity in mouse 4T1 cells implanted BALB/c mouse assessed as reduction in total macrophage infiltration into tumors at 0.25 ug/kg, ip administered daily for 18 days by F4/80 staining based immunofluorescence microscopy; type: functional, organism-based; details: dose 0.25 µg/kg, time 18.0 day
[32] = Toxicity in mouse B16-F10 cells implanted C57BL/6 mouse assessed as effect on body weight at 0.25 ug/kg, ip administered daily for 28 days in presence of SAHA; type: organism-based; details: in vivo, 0.00025 mg/kg, dose 0.25 µg/kg, time 28 day
4T1 [33] = assay: Cytotoxicity against mouse 4T1 cells assessed as reduction in cell viability at 100 nM measured after 24 hrs in presence of SAHA by RealTime-glo cell viability assay; type: functional, cell-based
Mus musculus [34] = assay: Immunomodulatory activity in mouse 4T1 cells implanted BALB/c mouse assessed as reduction in Ccl2 gene expression at 0.25 ug/kg, ip administered daily for 18 days by RT-qPCR analysis; type: functional, organism-based; details: dose 0.25 µg/kg, time 18.0 day
Mus musculus [35] = assay: Immunomodulatory activity in mouse 4T1 cells implanted BALB/c mouse assessed as reduction in Cxcl10 gene expression at 0.25 ug/kg, ip administered daily for 18 days by RT-qPCR analysis; type: functional, organism-based; details: dose 0.25 µg/kg, time 18.0 day
[36] = Toxicity in 4T1 cells implanted BALB/c mouse assessed as stress at 0.25 ug/kg, ip administered daily for 18 days; type: organism-based; details: in vivo, 0.00025 mg/kg, 432 h, dose 0.25 µg/kg, time 18 day
4T1 [37] = assay: Antitumor activity against mouse 4T1 cells implanted in BALB/c mouse assessed as reduction in tumor burden at 0.25 ug/kg, ip administered daily for 18 days in presence of SAHA relative to control; type: functional; set-up: scale not given: the % may be the effect or the level left; details: dose 0.25 µg/kg, time 18 day
Mus musculus [38] = assay: Immunomodulatory activity in mouse 4T1 cells implanted BALB/c mouse assessed as induction of Il1a gene expression at 0.25 ug/kg, ip administered daily for 18 days by RT-qPCR analysis; type: functional, organism-based; details: dose 0.25 µg/kg, time 18.0 day

## O=C(CCCCCCC(=O)Nc1ccccc1)NO [VORINOSTAT]
MDA-MB-231 [1]
  Activity: Active
4T1 [2]
  Activity: Active
B16-F10 [3]
  Activity: Active
MDA-MB-231 [4]
  Activity: Active
[5]
  Activity: Non-toxic
[6]
  Activity: Non-toxic
[7]
  Activity: Active
Mus musculus [8]
  Activity: Active; No Significant Effect Observed
[9]
  Activity: Non-toxic
[10]
  Activity: Non-toxic
[11]
  Activity: Non-toxic
[12]
  Activity: Non-toxic
4T1 [13]
  Activity: ~20%
[14]
  inhibition: Active
[15]
  inhibition: Active
4T1 [16]
  Activity: Active
[17]
  Activity: Non-toxic
B16-F10 [18]
  Activity: Active
[19]
  Activity: Non-toxic

## C=C1/C(=C\C=C2/CCC[C@]3(C)[C@@H]([C@H](C)CCCC(C)(C)O)CC[C@@H]23)C[C@@H](O)C[C@@H]1O [CALCITRIOL]
[20]
  Activity: Non-toxic
MDA-MB-231 [21]
  Activity: Active
MDA-MB-231 [4]
  Activity: Active
[22]
  Activity: Non-toxic
[23]
  Activity: Non-toxic
Mus musculus [24]
  Activity: Active
[25]
  Activity: Non-toxic
[26]
  Activity: Non-toxic
Mus musculus [27]
  Activity: Active
B16-F10 [28]
  Activity: Active
[29]
  Activity: Non-toxic
B16-F10 [30]
  Activity: Active
Mus musculus [31]
  Activity: Active; Significantly Reduced Macrophage Infiltration Into Tumor
[32]
  Activity: Non-toxic
4T1 [33]
  Activity: Active
Mus musculus [34]
  Activity: Active
Mus musculus [35]
  Activity: Active
[36]
  Activity: Non-toxic
4T1 [37]
  Activity: ~20%
4T1 [16]
  Activity: Active
Mus musculus [38]
  Activity: Active
